In general, EC50 refers to the concentration needed to bring the measured effect to its halfway point.

The values that follow come from US7553844B2 (Jarrow Formulas, Inc., priority 2003, dated 2009).

The subject of one experiment is primary HIV-1 isolates. In kind it is cell-based. As to conditions: 1 μM CQ; data not shown. The source says:
(§1) Laboratory-adapted HIV-1IIIB and HIV-2CBL/20 strans, the primary isolates HIV-1UG3 (Clade A, R5) and HIV-1VI 829 (Clade C, R5), both obtained from antiretroviral-naive subjects were used. These viruses are fully described in the paper by Savarino A. et al. referenced above. The HIV-1PAVIA12 isolate was also used. It was donated by Dr. Maurizia Debiaggi, University of Pavia, Italy, who also performed its genotypic analysis. It belongs to Clade B and was isolated from an individual with HAART failure. […] Viral stocks were titrated biologically by the 50% endpoint dilution method, using MT-2 cells (laboratory strains) or PHA-activated peripheral blood mononuclear cells (PBMC) (primary isolates).
(§2) In acute infection assays, the appropriate cell types were incubated at 37° C. for 2 h with the viral stock suspensions at a multiplicity of infection (MOI) of approximately 0.1, unless otherwise specified. After three washes, cells were incubated in fresh culture medium for 7 days at 37° C., and cell-free supernatants at different intervals post-infection were harvested for ELISA measurement of HIV-1 p24 (NEN Life Science Prod., Boston Mass.) or HIV-2 p27 (Coulter, Hialeah, Fla.) (26, 33).
(§3) Tests were conducted to evaluate the concentrations of each drug in the different combinations that produced 90% inhibition of HIV-1 replication. For each drug combination, the FIC was determined. […]

The next experiment deals with HIV-1 IIIB. As to the kind of experiment: acute infection assay, HIV-1 p24 ELISA, MT-4 cells. As to conditions: Human immunodeficiency virus 1, MT4; HIV-1 IIIB-infected MT-4 cells; data not shown. Type of experiment: cell-based.
Excerpt: as §1, §2
A fractional inhibitory concentration (FIC) was then calculated as drug EC90 of drug A in combination with drug 2/EC90 of drug B alone. The effect was considered to be synergistic when the sum of FICs was ≦0.5. […]
In general terms: In an ELISA, binding on a coated surface is turned into a signal by an enzyme label.

The test system of a further experiment is UG3 (HIV-1 Clade A). Put plainly: infection of PBMC with primary isolate UG3, p24. Type of experiment: cell-based. As to conditions: without CQ.
Excerpt: as §1, §2, §3

In experiment [1] the test system is P. falciparum (3D7, Ibginovia). As to the kind of experiment: P. falciparum LDH activity, protease inhibitors alone. Type of experiment: cell-based, Plasmodium falciparum. As to conditions: PI alone, 48 h, clinically observable concentrations. Here is the method: Results are shown as a percentage of control values.
Ibginovia is an isolate obtained at the Istituto Superiore di Sanità, Rome, Italy, positive for mutations in the codons K76 and A220 of the pfcrt gene conferring CQ resistance. The parasite's origin is Nigeria. All parasites were maintained in vitro in RPMI 1640 medium to which was added human type A red blood cells (RBC) and 10% heat-inactivated human serum. All cultures were placed in a humidified incubator at 37° C. with a gas-controlled environment of 3% O2, 6% CO2, and 91% N2 and fed according to established procedures.
(§4) This assay is based on the principle that plasmodial lactate dehydrogenase (LDH) can use 3-acetylpyridine NAD (APAD) as a coenzyme, which is converted to APADH during lactate oxidation. All samples for LDH determination were measured spectrophotometrically at 650 nm. For these measurements, 10-50 μl of the malaria sample was added to the Mastat reagent, which is an optimized formulation for parasite LDH detection. […] The formation of APADH was determined at 650 nm using a multiwavelength plate reader. Each well of a test microtiter plate was automatically measured at 30-sec. intervals, and the individual data points were stored and subsequently plotted with a software program. […] As APADH is formed, the NBT is reduced and forms a formazan product that is blue and can be detected visually and measured at 650 nm. […]

The test system of experiment [2] is CQ-resistant P. falciparum strain (W2). Put plainly: P. falciparum LDH activity, CQ with or without PI, W2. In kind it is cell-based, Plasmodium falciparum. Here is the method: (§5) A fractional inhibitory concentration (FIC) was then calculated as drug EC90 of drug A in combination with drug 2/EC90 of drug B alone. The effect was considered to be synergistic when the sum of FICs was ≦0.5.
(§6) This assay is based on the principle that plasmodial lactate dehydrogenase (LDH) can use 3-acetylpyridine NAD (APAD) as a coenzyme, which is converted to APADH during lactate oxidation. All samples for LDH determination were measured spectrophotometrically at 650 nm. For these measurements, 10-50 μl of the malaria sample was added to the Mastat reagent, which is an optimized formulation for parasite LDH detection. The samples consisted of malaria cultures. All aliquots were added to 0.2 ml of the Malstat reagent using a 96-well microtiter plate format. The formation of APADH was determined at 650 nm using a multiwavelength plate reader. Each well of a test microtiter plate was automatically measured at 30-sec. intervals, and the individual data points were stored and subsequently plotted with a software program. The spectrophotometric assessment of LDH activity was facilitated by adding NBT (0.24 mM) and PES (0.033 mM) to Malstat reagent. As APADH is formed, the NBT is reduced and forms a formazan product that is blue and can be detected visually and measured at 650 nm. This assay is specific for parasitic LDH and is not influenced by the human enzyme. […]

In experiment [3] the test system is CQ-sensitive P. falciparum strain (3D7). As to the kind of experiment: P. falciparum LDH activity, CQ with or without PI, 3D7. In kind it is cell-based, Plasmodium falciparum. Here is the method: as §5, §6
For experiment [4], the system named is CQ-resistant P. falciparum field isolate (Ibginovia). Put plainly: P. falciparum LDH activity, CQ with or without PI, Ibginovia. In kind it is cell-based, Plasmodium falciparum. As to conditions: PI with CQ, 48 h; PI at sub-optimally inhibiting concentration.
Excerpt: In order to illustrate typical results, data are shown as a mean ±S.D. optical density (O.D.) at the end of a reaction mediated by plasmodial lactate dehydrogenase (LDH), as described in the Materials and Methods of the EXAMPLES section. The O.D. values are directly proportional to P. falciparum cell viability.
Ibginovia is an isolate obtained at the Istituto Superiore di Sanità, Rome, Italy, positive for mutations in the codons K76 and A220 of the pfcrt gene conferring CQ resistance. The parasite's origin is Nigeria. All parasites were maintained in vitro in RPMI 1640 medium to which was added human type A red blood cells (RBC) and 10% heat-inactivated human serum. […]
as §4, with “nm.” for “nm. For these measurements, 10-50 μl of the malaria sample was added to the Mastat reagent, which is an optimized formulation for parasite LDH detection.”

The test system of the next experiment is P. berghei. As to the kind of experiment: murine malaria model, Balb/c mice infected with P. berghei. Type of experiment: in vivo, Plasmodium berghei. As to conditions: 50 or 150 mg/kg intragastrically. Here is the method: FIG. 6. Antimalarial effects of RTV in mice infected with Plasmodium berghei.
FIG. 6A. Effects of RTV (50 mg/kg) on P. berghei growth in Balb/c mice. Results are shown as an average ±S.D. of the percentage of parasitized red blood cells at different days of follow-up.
FIG. 6B. Effects of RTV (50 mg/kg) on survival of mice infected with P. berghei. Results are shown as Kaplan Meyer curves and the P value for difference in survival is reported.
FIG. 6C. Effects of RTV (150 mg/kg) on P. berghei growth in Balb/c mice. Results are shown as an average ±S.D. of the percentage of parasitized red blood cells at different days of follow-up.
FIG. 6D. Effects of RTV (150 mg/kg) on survival of mice infected with P. berghei. Results are shown as Kaplan Meyer curves and the P value for difference in survival is reported.
Parasitemia was determined by light microscopy using Giemsa-stained thin smears and with fluorescence microscopy using the dye benzothiocarboxypurine.
To evaluate the effects of a PI in an animal model of malaria, Balb/c mice were inoculated intraperitoneally with P. berghei and then divided into three groups: 1) mock-treated with an intragastric inoculation of phosphate-buffer saline (PBS), 2) treated intragastrically with the ritonavir diluent (i.e., a 47% alcoholic solution) in the absence of ritonavir (placebo), and 3) treated intragastrically with 50 or 150 mg/kg.

With `CCN(CC)CCCC(C)Nc1ccnc2cc(Cl)ccc12` (stereo not shown) [CQ, Chloroquine], the “inhibitory effect of CQ alone” value with primary HIV-1 isolates is given as “minimal”.
Turning to `CC(C)(C)NC(=O)[C@@H]1CN(Cc2cccnc2)CCN1C[C@@H](O)C[C@@H](Cc1ccccc1)C(=O)N[C@H]1c2ccccc2C[C@H]1O` [IDV, indinavir], the EC50 in the experiment on HIV-1 IIIB is ~10 nM. Also, in the experiment with UG3 (HIV-1 Clade A) (100 nM IDV, 5 days after infection), the “p24 levels in supernatants” value is given as “typical peak in the p24 levels in supernatants”. The “IDV concentration at which inhibitory effects were visible” value in the experiment with UG3 (HIV-1 Clade A) came out at 1 µM. Also, the “P. falciparum growth (LDH activity)” value in experiment [1] was “dose-dependently inhibited P. falciparum growth”. Besides, the “sum of FICs” value in experiment [2] (CQ+PI combination, W2 strain, ≦0.5 indicates synergism) is ≤ 0.5; in experiment [3] (CQ+PI combination, 3D7 strain), > 0.5. The “response to CQ in CQ-resistant P. falciparum” value in experiment [2] (IDV (5 μM) with CQ, 48 h) was “restored the response to CQ”. Further, the “effects of IDV on CQ-response” value in experiment [3] (IDV (5 μM) with CQ, compared with CQ-resistant strains) is given as “less dramatic”.
As to `CC(C)c1nc(CN(C)C(=O)N[C@H](C(=O)N[C@@H](Cc2ccccc2)C[C@H](O)[C@H](Cc2ccccc2)NC(=O)OCc2cncs2)C(C)C)cs1` [RTV, ritonavir], the “P. falciparum growth (LDH activity)” value in experiment [1] is reported as “dose-dependently inhibited P. falciparum growth”. Further, the “response to CQ in CQ-resistant P. falciparum” value in experiment [4] was “restored the response to CQ”. Moreover, the “parasite multiplication in mice” value in the experiment with P. berghei (Balb/c mice) is “dose-dependently retarded parasite multiplication in mice”. Also, the “survival of treated mice” value in the experiment on P. berghei (Kaplan-Mayer curves) is “increased survival of treated mice in a significant manner”.
